In US20200368322A1, “METHODS OF IDENTIFYING AND USING AGENTS FOR TREATING DISEASES ASSOCIATED WITH INTESTINAL BARRIER DYSFUNCTION” (Yeda Research and Development Co. Ltd., priority 2018, published 2020):

Tests used:
[1] = system: tight junctions of Caco2 cells; assay: Caco2 tight junction morphology (cingulin or ZO-1 staining, tortuosity); assay type: cell-based, human
Method: (§1) CaCo-2 cells were purchased from ATCC. Cells were routinely grown in regular tissue culture medium (DMEM, 10% FCS, penicillin/streptomycin, GlutaMAX). For experiments with differing glucose concentrations, cells were routinely cultured in low-glucose DMEM (1 g/l glucose). Cells were seeded onto 96-well glass-bottom plates coated with either fibronectin or collagen 70 000 cells/well and allowed to grow for 24 hours to form confluent monolayer before indicated treatments.
(§2) For high resolution images of manually selected representative fields, a DeltaVision wide field fluorescent microscope (GE Healthcare) equipped with 40×UPlanFLN or 60×/1.42 PlanApo N oil objective (Olympus) was used. For multi-well plate scanning, the following automated imaging stations were used: DeltaVision microscope with plate scanning regiment, Hermes imaging station (IDEA bio-Medical) or ImagExpress microXL imaging station (Molecular Devices) equipped by 40× air objectives. In all cases in order to cover the curvature of apical surface of epithelial monolayer 5 μm thick z-stack was acquired around the tight junction plane (identified by best focus algorithm) and resulting image was generated as a maximum projection of all optical sections.
Cell images were segmented using Morphological Segmentation ImageJ plug-in and junction tortuosity was calculated as a ratio between junction length and Euclidian distance between its ends.

[2] = system: focal adhesions of Caco2 cells; assay: Caco2 cell-matrix focal adhesions (paxillin staining); assay type: cell-based, human; conditions: 10 mM acetyl-proline, 1 mM putrescine, 10 mM histamine, 5 mM spermine
Method: as §1, §2

[3] = system: mice with DSS-induced colitis; conditions: putrescine oral gavage 200 mg/kg twice daily; 2% DSS in drinking water
Method: (§3) For putrescine treatment, mice received putrescine by oral gavage with a dose of 200 mg/kg twice daily for 10 days prior to and during DSS treatment or Citrobacter rodentium infection.

Citrobacter rodentium = assay type: in vivo, mouse; conditions: putrescine oral gavage 200 mg/kg twice daily
Method: as §3
A kanamycin-resistant and luciferase-expressing derivative of Citrobacter rodentium DBS100 (ICC180) was used for infection as previously described (Thaiss et al., Science. 2018 Mar. 23; 359(6382):1376-1383).
Mice were infected with 200 μl solution containing approximately 1×10^9 colony-forming units (CFU) of overnight cultured bacteria by oral gavage. Infection was monitored by enumerating stool CFU and measuring abdominal bioluminescent. For in vivo bioluminescent imaging, mice were anesthetized and bioluminescence was measured using an IVIS2000 instrument and Living Image software (Perkin Elmer). For ex vivo luminescence quantification, the whole colons were dissected, extensively washed from all luminal contents, longitudinally cut open and immediately imaged. For CFU counts, stool or tissues were collected, weighed and homogenized in sterile phosphate buffered saline (PBS−/−). Homogenates were then serially diluted in PBS−/− and plated on LB kanamycin plates, incubated overnight at 37° C. Bacterial CFUs were counted the next day, normalizing them to the stool or tissue weight.

NCCCCN [putrescine]
recovery of the TJs after washout ([1]; CaCo2 cells pretreated 24 hrs with disruptor, then regular culture medium for 24 hours): partial recovery | TJ structure after disruptor treatment ([1]; CaCo2 cells, 24 hrs, LPS 300 ng/ml, Histamine 10 mM, putrescine 1 mM): pronounced TJ disruption | effect on tight junctions in metabolite screen ([1]; Caco2 cells): Disruption | tight junction morphology ([1]; Caco2 cells, 10 mM acetyl-proline, 1 mM putrescine, 10 mM histamine, 5 mM spermine): distortion of tight junction morphology | focal adhesions size [2]: increase of focal adhesions size | effect in mice with DSS-induced colitis [3]: disruptive effect | effect in mice with C. rodentium infection (Citrobacter rodentium): disruptive effect
